Laboratory results published in PMC12720098, “Prolintane analogs as hybrid monoamine transporter ligands: Structural determinants and species differences” (The Journal of Biological Chemistry, 2025).
Read-outs that look alike come from different tables or passages of the source.

Columns and labels:
rNET = target: T1, rNET (Rattus norvegicus, UniProt Q63380); assay: Uptake inhibition assay ([3H]norepinephrine) in rat brain synaptosomes; assay type: biochemical
T1 construct: As a means to evaluate transporter activity of prolintane analogs in native tissue preparation; from tissue; host or cells: rat brain synaptosomes (whole brain minus caudate and cerebellum)
Method: (§1) Rats were killed by CO2 narcosis and decapitated, then synaptosomes were prepared from brains using standard procedures. In brief, synaptosomes were prepared from caudate tissue for rat DAT (rDAT) assays, or from whole brain minus caudate and cerebellum for rat NET (rNET) and rat SERT (rSERT) assays. Brain tissue was homogenized in ice-cold 10% sucrose followed by centrifugation at 1000g for 10 min. The resulting supernatant containing crude synaptosomes was kept on ice until use in uptake or release procedures. Uptake inhibition and release assays were carried out as previously described ([62], [63]).
(§2) For uptake inhibition assays, 5 nM [^3H]dopamine, 10 nM [^3H]norepinephrine, or 5 nM [^3H]5-HT was used as the radiolabeled transmitter for rDAT, rNET, or rSERT, respectively. To optimize uptake for a single transporter, unlabeled blockers were included that prevented uptake of [^3H]transmitter by competing transporters: 50 nM GBR 12935 was added to NET and SERT assays to block DAT, 100 nM nomifensine was added to SERT assays to block NET. Uptake assays were initiated by adding 100 μl of tissue to 900 μl Krebs-phosphate buffer (126 mM NaCl, 2.4 mM KCl, 0.83 mM CaCl2, 0.8 mM MgCl2, 0.5 mM KH2PO4, 0.5 mM Na2SO4, 11.1 mM glucose, 0.05 mM pargyline, 1 mg/ml bovine serum albumin, and 1 mg/ml ascorbic acid, pH 7.4) containing test drug and [^3H]transmitter. Uptake assays were terminated by rapid vacuum filtration, and retained radioactivity was quantified with liquid scintillation counting.
(§3) Effects of test drugs on release and uptake inhibition were analyzed by nonlinear regression using GraphPad Prism 9 (GraphPad Scientific, San Diego, CA, USA). Concentration–response values for the uptake inhibition and release were fit to the equation, Y(x)=Ymin+Ymax−Ymin/1+10^((LogP50−LogX)·n) , where x is the concentration of the compound tested, Y(x) is the response measured, Ymax is the maximal response, P50 is either IC50 (the concentration that yields half-maximal uptake inhibition response) or EC50 (the concentration that yields half-maximal release response), and n is the Hill slope parameter.

hNET = target: T2, hNET (Homo sapiens, UniProt P23975); assay: Batch release assay ([3H]MPP+) in transfected HEK293 cells; assay type: cell-based; conditions: % efflux of total uptake, compounds approximately at IC50 concentration
T2 construct: expressed in transfected cells
Method: (§4) Batch release assays were performed as described previously ([44]). In brief, HEK293 cells stably expressing monoamine transporters were seeded similar to the procedure used for uptake inhibition assays. A day after seeding cells were pre-loaded with 50 μl/well 0.015 μM [^3H]MPP^+ (hDAT, hNET), or 0.08 μM [^3H]5-HT (hSERT) for 20 min at 37 °C. Then cells were washed four times for 3 to 4 min each and further incubated with KHB or KHB + monensin. After 10 min of incubation, two (screening) to four (full traces; hSERT) 2 min incubations were performed to establish a baseline release without substance. […] Each fraction was transferred to an empty well in the 96-well plate. For screening, a known inhibitor (hDAT, hNET: 50 μM GBR12909) and releaser (hDAT, hNET: 10 μM S-(+)-amphetamine) were used as controls. Ultima Gold XR scintillation cocktail was added to the remaining cells, and each well contained a release fraction. The counted radioactivity in the respective fraction was expressed as a percentage of total radioactivity at the start of the fraction.
(§5) Half-maximal inhibitory concentrations (IC50) were obtained from fitting a sigmoidal dose–response ( Y=Bottom+Top−Bottom/1+10^((LogIC50−X)·HillSlope) ) in GraphPad Prism 10.3.1 (GraphPad Software Inc.). Uptake inhibition data were evaluated by one-way ANOVA followed by Tukey's multiple comparisons test. Release data were analyzed using a two-way ANOVA (batch release) or a mixed-effects model with Geisser-Greenhouse correction (time-dependent traces) employing Šidák correction for comparing differences between compounds with or without the addition of monensin.

hDAT [1] = target: T3, hDAT (Homo sapiens, UniProt Q01959); assay: as above; assay type: cell-based; conditions: % efflux of total uptake, compounds approximately at IC50 concentration
T3 construct: expressed in transfected cells
Method: as §4, §5

hDAT [2] = target: T3, hDAT; assay: Uptake inhibition assay ([3H]DA) in transfected HEK293 cells; assay type: cell-based; conditions: for DAT/SERT ratio: human isoform (h), 1/DAT IC50 / 1/SERT IC50
Method: HEK293 cells stably expressing human monoamine transporters hSERT, hDAT or hNET were seeded into poly-D-lysine (PDL) coated 96-well plates with a density of approximately 36,000 cells per well 1 day prior to experiments. A day after seeding, the cell medium was replaced with 200 μl Krebs-HEPES-buffer (KHB; 120 mM NaCl, 3 mM KCl, 2 mM CaCl2·2H2O, 2 mM MgCl2·6H2O, 20 mM D-glucose, pH = 7.3). The test drugs were initially dissolved in Milli-Q H2O or dimethyl sulfoxide (DMSO) at a concentration of 10 to 100 mM. Then, cells were treated with the respective concentration of the test drug diluted in KHB for 5 min as a pre-incubation step. Subsequently, in the uptake step, the solution was replaced with 50 μl/well diluted drug solution and tritiated substrate (hDAT: 0.1 μM [^3H]DA; hNET: 0.02 μM [^3H]MPP^+; hSERT: 0.1 μM [^3H]5-HT) for 1 min (hDAT, hSERT) or 3 min (hNET). After incubation, cells were immediately washed with 200 μl KHB to stop uptake. Uptake was indirectly measured by quantifying beta emission with liquid scintillation counting (Wallac 1450 MicroBeta TriLux Liquid Scintillation Counter & Lumi; GMI). Therefore, 200 μl Ultima Gold XR scintillation cocktail (PerkinElmer, MA, USA) was added to each well.
as §5

rSERT = rSERT (Rattus norvegicus, UniProt P31652); assay: Uptake inhibition assay ([3H]5-HT) in rat brain synaptosomes; assay type: biochemical; design: As a means to evaluate transporter activity of prolintane analogs in native tissue preparation; from tissue; host or cells: rat brain synaptosomes (whole brain minus caudate and cerebellum)
Method: as §1, §2, §3

T1 sequence (Q63380 1-617): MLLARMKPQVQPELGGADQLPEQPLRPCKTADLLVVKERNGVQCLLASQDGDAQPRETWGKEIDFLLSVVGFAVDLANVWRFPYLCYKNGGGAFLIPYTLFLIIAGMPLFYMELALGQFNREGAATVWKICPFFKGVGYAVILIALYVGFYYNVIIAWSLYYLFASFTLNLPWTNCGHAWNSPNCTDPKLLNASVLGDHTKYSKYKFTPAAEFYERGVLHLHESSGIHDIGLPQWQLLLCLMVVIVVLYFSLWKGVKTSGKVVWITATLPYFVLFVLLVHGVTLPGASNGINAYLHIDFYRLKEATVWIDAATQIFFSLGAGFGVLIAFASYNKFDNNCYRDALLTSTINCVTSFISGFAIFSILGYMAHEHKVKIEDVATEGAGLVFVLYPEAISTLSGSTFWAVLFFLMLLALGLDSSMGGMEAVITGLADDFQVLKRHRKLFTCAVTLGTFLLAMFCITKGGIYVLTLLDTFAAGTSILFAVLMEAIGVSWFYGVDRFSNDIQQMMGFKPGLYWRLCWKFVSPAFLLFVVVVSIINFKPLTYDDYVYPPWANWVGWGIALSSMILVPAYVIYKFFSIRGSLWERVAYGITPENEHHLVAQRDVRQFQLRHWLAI
T2 sequence (P23975 whole entry): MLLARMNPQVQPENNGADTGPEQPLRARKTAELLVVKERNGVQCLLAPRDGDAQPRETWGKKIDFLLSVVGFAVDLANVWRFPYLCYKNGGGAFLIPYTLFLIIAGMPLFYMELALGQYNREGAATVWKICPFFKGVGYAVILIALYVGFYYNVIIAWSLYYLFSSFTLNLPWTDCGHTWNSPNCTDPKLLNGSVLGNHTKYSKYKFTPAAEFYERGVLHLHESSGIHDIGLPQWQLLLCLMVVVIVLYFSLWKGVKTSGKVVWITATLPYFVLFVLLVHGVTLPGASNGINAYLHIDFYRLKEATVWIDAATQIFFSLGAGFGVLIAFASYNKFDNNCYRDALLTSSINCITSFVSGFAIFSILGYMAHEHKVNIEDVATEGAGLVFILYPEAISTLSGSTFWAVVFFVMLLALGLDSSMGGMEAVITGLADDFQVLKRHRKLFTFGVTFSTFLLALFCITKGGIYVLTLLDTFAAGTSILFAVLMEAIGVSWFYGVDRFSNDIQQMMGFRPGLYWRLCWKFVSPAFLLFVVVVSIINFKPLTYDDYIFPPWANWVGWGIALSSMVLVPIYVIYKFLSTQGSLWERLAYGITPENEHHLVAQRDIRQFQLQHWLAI
rSERT, sequence (P31652 whole entry): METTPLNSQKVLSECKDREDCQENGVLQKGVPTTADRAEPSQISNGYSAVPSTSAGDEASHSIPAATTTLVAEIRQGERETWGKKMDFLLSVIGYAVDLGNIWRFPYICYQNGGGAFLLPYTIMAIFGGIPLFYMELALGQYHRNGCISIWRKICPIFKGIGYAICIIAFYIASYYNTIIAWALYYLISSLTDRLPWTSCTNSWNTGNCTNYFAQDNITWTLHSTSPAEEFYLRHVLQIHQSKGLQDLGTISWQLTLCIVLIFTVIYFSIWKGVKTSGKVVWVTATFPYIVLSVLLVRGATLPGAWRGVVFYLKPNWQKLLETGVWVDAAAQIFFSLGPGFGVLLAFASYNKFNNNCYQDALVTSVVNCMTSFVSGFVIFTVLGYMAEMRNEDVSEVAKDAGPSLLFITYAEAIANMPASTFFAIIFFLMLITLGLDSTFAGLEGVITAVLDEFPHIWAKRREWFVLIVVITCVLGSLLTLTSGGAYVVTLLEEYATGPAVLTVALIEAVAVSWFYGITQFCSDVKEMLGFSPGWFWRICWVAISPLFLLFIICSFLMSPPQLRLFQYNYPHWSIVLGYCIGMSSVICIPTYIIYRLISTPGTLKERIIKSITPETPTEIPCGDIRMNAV
T3 sequence (Q01959 whole entry): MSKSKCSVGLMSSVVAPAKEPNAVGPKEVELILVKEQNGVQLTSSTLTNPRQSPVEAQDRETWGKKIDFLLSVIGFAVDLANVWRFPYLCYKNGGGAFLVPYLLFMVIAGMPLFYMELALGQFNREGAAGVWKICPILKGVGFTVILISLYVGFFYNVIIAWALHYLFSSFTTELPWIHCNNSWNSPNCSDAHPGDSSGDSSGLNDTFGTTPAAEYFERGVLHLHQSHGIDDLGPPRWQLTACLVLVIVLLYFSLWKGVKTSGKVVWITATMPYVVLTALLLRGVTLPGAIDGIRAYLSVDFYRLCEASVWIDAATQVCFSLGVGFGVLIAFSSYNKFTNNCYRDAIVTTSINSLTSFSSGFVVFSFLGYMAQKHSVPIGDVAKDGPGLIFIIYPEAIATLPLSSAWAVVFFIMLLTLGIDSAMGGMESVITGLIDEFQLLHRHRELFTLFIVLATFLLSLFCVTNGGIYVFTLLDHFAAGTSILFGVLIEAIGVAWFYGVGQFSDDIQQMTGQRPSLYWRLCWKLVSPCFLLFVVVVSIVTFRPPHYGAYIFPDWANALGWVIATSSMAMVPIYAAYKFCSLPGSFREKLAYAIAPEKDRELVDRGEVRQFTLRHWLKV

For `CCCC(Cc1ccccc1F)N1CCCC1` (centres unmarked) [2-Fluoroprolintane, 1-[1-(2-fluorophenyl)pentan-2-yl]pyrrolidine], the IC50 (rNET) was 63 ± 6 nM, the “hNET-mediated efflux, predicted (LS) mean diff, No mon - Mon” value (hNET) was 0.3867 and the “hDAT-mediated efflux, predicted (LS) mean diff, No mon - Mon” value (hDAT [1]) was -0.6425. The IC50 (hDAT [2]) was 109 ± 19 nM, the DAT/SERT ratio (hDAT [2]) was 323 and the IC50 (rSERT) was 2230 ± 152 nM.

With `CCCC(Cc1ccccc1C)N1CCCC1` (centres unmarked) [2-Methylprolintane, 1-[1-(2-methylphenyl)pentan-2-yl]pyrrolidine] the IC50 (rNET) was 138 ± 13 nM, the “hNET-mediated efflux, predicted (LS) mean diff, No mon - Mon” value (hNET) was -0.3417 and the “hDAT-mediated efflux, predicted (LS) mean diff, No mon - Mon” value (hDAT [1]) was -0.04333. The IC50 (hDAT [2]) was 185 ± 65 nM, the DAT/SERT ratio (hDAT [2]) was 23 and the IC50 (rSERT; read-out: [3H]5-HT uptake SERT IC50, rat isoform (r), rat brain synaptosomes, mean ± SD) was 323 ± 280 nM.

In the case of `CCCC(Cc1cccc(F)c1)N1CCCC1` (centres unmarked) [3-Fluoroprolintane, 1-[1-(3-fluorophenyl)pentan-2-yl]pyrrolidine], the IC50 (rNET) is reported as 28 ± 3 nM, the “hNET-mediated efflux, predicted (LS) mean diff, No mon - Mon” value (hNET) is reported as 0.3678 and the “hDAT-mediated efflux, predicted (LS) mean diff, No mon - Mon” value (hDAT [1]) is reported as 0.0325. For the same compound, the IC50 (hDAT [2]) was 64 ± 20 nM, the DAT/SERT ratio (hDAT [2]) was 210 and the IC50 (rSERT) was 521 ± 116 nM.

`CCCC(Cc1cccc(C)c1)N1CCCC1` (centres unmarked) [3-Methylprolintane, 1-[1-(3-methylphenyl)pentan-2-yl]pyrrolidine] was tested, and the IC50 (rNET) was 62 ± 9 nM, the “hNET-mediated efflux, predicted (LS) mean diff, No mon - Mon” value (hNET) was -0.8634 and the “hDAT-mediated efflux, predicted (LS) mean diff, No mon - Mon” value (hDAT [1]) was -0.702. The IC50 (hDAT [2]) was 56 ± 11 nM, the DAT/SERT ratio (hDAT [2]) was 53 and the IC50 (rSERT) was 139 ± 14 nM.

For `CCCC(Cc1ccc(F)cc1)N1CCCC1` (centres unmarked) [4-Fluoroprolintane, 1-[1-(4-fluorophenyl)pentan-2-yl]pyrrolidine], the IC50 (rNET) was 217 ± 21 nM, the “hNET-mediated efflux, predicted (LS) mean diff, No mon - Mon” value (hNET) was 0.3845 and the “hDAT-mediated efflux, predicted (LS) mean diff, No mon - Mon” value (hDAT [1]) was -0.2875. The IC50 (hDAT [2]) was 109 ± 41 nM, the DAT/SERT ratio (hDAT [2]) was 179 and the IC50 (rSERT) was 884 ± 78 nM.

With `CCCC(Cc1ccc(C)cc1)N1CCCC1` (centres unmarked) [4-Methylprolintane, 1-[1-(4-methylphenyl)pentan-2-yl]pyrrolidine] the IC50 (rNET) was 45 ± 5 nM, the “hNET-mediated efflux, predicted (LS) mean diff, No mon - Mon” value (hNET) was -0.3451 and the “hDAT-mediated efflux, predicted (LS) mean diff, No mon - Mon” value (hDAT [1]) was -0.8967. The IC50 (hDAT [2]) was 16 ± 2 nM, the DAT/SERT ratio (hDAT [2]) was 159 and the “inhibitory potency at hDAT compared to pyrovalerone” value (hDAT [2]; pyrovalerone value ref 53) was “four-fold greater”. The IC50 (rSERT) was 72 ± 5 nM.

`CCCC(Cc1ccccc1)N1CCCC1` (centres unmarked) [Prolintane, 1-(1-phenylpentan-2-yl)pyrrolidine] was tested, and the IC50 (rNET) was 39 ± 4 nM, the “hNET-mediated efflux, predicted (LS) mean diff, No mon - Mon” value (hNET) was -0.3446 and the “hDAT-mediated efflux, predicted (LS) mean diff, No mon - Mon” value (hDAT [1]) was 0.1383. The IC50 (hDAT [2]) was 43 ± 24 nM, the DAT/SERT ratio (hDAT [2]) was 670 and the IC50 (rSERT) was 2320 ± 169 nM. For the same compound, the “IC50 at rSERT, fold weaker than at rDAT and rNET” value (rSERT; rat brain synaptosomes) was “about 50 fold”.
